Measurements from publication PMC6422671 (British Journal of Clinical Pharmacology, 2019).
Like-named read-outs stand apart in the source and are kept apart here.

Key:
[1] = Plasma pharmacokinetics after single oral dose, phase I; data geometric mean (coefficient of variation), t max median (range); type: in vivo, healthy men; details: for AUC(0-inf) / AUC(0-t) / Cmax / Tmax / Vd/F / half-life: male, human, plasma; for Tmax: median (range); for Vd/F: read-out: Vz/F
Experimental: Participants fasted overnight for at least 10 hours before dosing. […] Participants resided at the study centre until 48 hours postdose and attended a follow‐up visit 7–10 days after dosing.
This dose was selected by the Safety Review Committee based on all available data for one or more higher doses in part A. Participants once again resided at the study centre until 48 hours postdose and attended a follow‐up visit 7–10 days after dosing.
Blood samples were collected only up to 48 hours after dosing for the first cohort; the sampling schedule was amended thereafter to include the later time points. Samples for determination of AZD4831 in plasma were analysed by Covance Laboratories Ltd. (Harrogate, UK). […] This method was validated prior to sample analysis in the range 2–2000 nmol L^−1 in plasma, using a 25 μL sample aliquot.

[2] = Urinary pharmacokinetics after single oral dose, phase I; type: in vivo, healthy men; details: male, human, urine
Experimental: Urine was collected for pharmacokinetic analyses before dosing (spot sample) and 0–3, 3–6, 6–9, 9–12, 12–24, 24–36 and 36–48 hours after dosing (pooled samples). Samples for determination of AZD4831 in urine were analysed by Covance Laboratories Ltd. (Harrogate, UK). […] This method was validated prior to sample analysis in the range 20–20 000 nmol L^−1 in urine, using a 25 μL sample aliquot.

[3] = parameters: method as in E Michaëlsson et al., manuscript in preparation; details: ref E Michaëlsson et al., manuscript in preparation; cited from earlier work
[4] = tested on: urate anion exchanger 1 (URAT1; SLC22A12); parameters: method as in E Michaëlsson et al., manuscript in preparation; details: in vitro; ref E Michaëlsson et al., manuscript in preparation; cited from earlier work
CYP3A4 = tested on: CYP3A4; parameters: method as in unpublished data; details: in vitro; ref unpublished data; cited from earlier work
[5] = Adverse event monitoring, phase I single dose
Experimental: Safety assessments included adverse event (AE) monitoring, vital signs monitoring (systolic and diastolic blood pressure, pulse rate), electrocardiography, physical examinations and laboratory assessments (haematology, clinical chemistry and urinalysis).
The pharmacokinetic analysis set included all participants in the safety analysis set with evaluable pharmacokinetic data and no major protocol deviations. Analyses were performed using Statistical Analysis System (SAS) software, version 9.4. Descriptive statistics were not presented if there were fewer than 3 values available.

[6] = 45 mg after high-fat, high-calorie meal vs fasting

In the case of `C[C@@H](N)c1cc(Cl)ccc1Cn1c(=S)[nH]c(=O)c2[nH]ccc21` [AZD4831], the “delay of t max by food” value [1, 6] is reported as 2.5 h, the “reduction of Cmax by food” value [1, 6] is reported as 44% and the “effect of food on AUC0–∞” value ([1]; 45 mg fed vs fasted) is reported as “slightly reduced”. For the same compound, the “effect of food on t 1/2λz” value ([1]; 45 mg fed vs fasted) was “slightly increased”, the AUC(0-inf) ([1]; oral, 5 mg, 5 mg fasted) was 0.514 µM·h and the AUC(0-t) ([1]; oral, 5 mg, 5 mg fasted) was 0.294 µM·h. The Cmax ([1]; oral, 5 mg, 5 mg fasted) was 0.015 µM, the Tmax ([1]; oral, 5 mg, 5 mg fasted) was 1 h and the Vd/F ([1]; oral, 5 mg, 5 mg fasted, n = 4) was 1580 L. It also gave a half-life ([1]; oral, 5 mg, 5 mg fasted, n = 4, read-out: t 1/2λz (converted)) of 37.6 h, an AUC(0-inf) ([1]; oral, 15 mg, 15 mg fasted) of 1.67 µM·h and an AUC(0-t) ([1]; oral, 15 mg, 15 mg fasted) of 1.44 µM·h. For the same compound, the Cmax ([1]; oral, 15 mg, 15 mg fasted) was 0.0834 µM, the Tmax ([1]; oral, 15 mg, 15 mg fasted) was 0.74 h and the Vd/F ([1]; oral, 15 mg, 15 mg fasted) was 1750 L. For the same compound, the half-life ([1]; oral, 15 mg, 15 mg fasted, read-out: t 1/2λz (converted)) was 45.2 h, the AUC(0-inf) ([1]; oral, 45 mg, 45 mg fasted) was 6.69 µM·h and the AUC(0-t) ([1]; oral, 45 mg, 45 mg fasted) was 6.13 µM·h. It also gave a Cmax ([1]; oral, 45 mg, 45 mg fasted) of 0.326 µM, a Tmax ([1]; oral, 45 mg, 45 mg fasted) of 0.51 h and a Vd/F ([1]; oral, 45 mg, 45 mg fasted) of 1450 L. The half-life ([1]; oral, 45 mg, 45 mg fasted, read-out: t 1/2λz (converted)) was 49.9 h, the AUC(0-inf) ([1]; oral, 45 mg, 45 mg fed) was 5.79 µM·h and the AUC(0-t) ([1]; oral, 45 mg, 45 mg fed) was 5.37 µM·h. It also gave a Cmax ([1]; oral, 45 mg, 45 mg fed) of 0.184 µM, a Tmax ([1]; oral, 45 mg, 45 mg fed) of 3 h and a Vd/F ([1]; oral, 45 mg, 45 mg fed) of 1940 L. The half-life ([1]; oral, 45 mg, 45 mg fed, read-out: t 1/2λz (converted)) was 58 h, the Cmax ([1]; oral, 135 mg, 135 mg fasted) was 1.09 µM and the Tmax ([1]; oral, 135 mg, 135 mg fasted) was 0.74 h. The Vd/F ([1]; oral, 135 mg, 135 mg fasted) was 1450 L, the half-life ([1]; oral, 135 mg, 135 mg fasted, read-out: t 1/2λz (converted)) was 48.4 h and the Cmax ([1]; oral, 405 mg, 405 mg fasted) was 3.04 µM. For the same compound, the Tmax ([1]; oral, 405 mg, 405 mg fasted) was 0.75 h, the Vd/F ([1]; oral, 405 mg, 405 mg fasted) was 1270 L and the half-life ([1]; oral, 405 mg, 405 mg fasted, read-out: t 1/2λz (converted)) was 38.1 h. For the same compound, the half-life ([1]; po, single oral doses 5–405 mg fasted, range across doses, read-out: plasma half-life (t 1/2λz estimates)) was 38.2 to 50 h, the CL renal ([2]; 5 mg, 5 mg fasted, geometric mean (CV), read-out: CLR (converted)) was 252 mL/min and the CL renal ([2]; 5 mg, 5 mg fasted, read-out: mean renal clearance (converted)) was 257 mL/min. The CL renal ([2]; 15 mg, 15 mg fasted, geometric mean (CV), read-out: CLR (converted)) was 240 mL/min, the CL renal ([2]; 45 mg, 45 mg fasted, geometric mean (CV), read-out: CLR (converted)) was 162 mL/min and the CL renal ([2]; 135 mg, 135 mg fasted, geometric mean (CV), read-out: CLR (converted)) was 157 mL/min. The CL renal ([2]; 405 mg, 405 mg fasted, geometric mean (CV), read-out: CLR (converted)) was 132 mL/min, the CL renal ([2]; 405 mg, 405 mg fasted, read-out: mean renal clearance (converted)) was 148 mL/min and the “human plasma protein binding” value [3] was 65%. For the same compound, the “inhibition of URAT1 uric acid transport” value [4] was “does not inhibit”, the “involvement of CYP3A4 in metabolism” value (CYP3A4) was “involved in the metabolism” and the “Any AE” value ([5]; 5 mg fasted n = 6) was 2 (33.3) n (%). For the same compound, the Epistaxis ([5]; 5 mg fasted n = 6) was 0 n (%), the Gastroenteritis ([5]; 5 mg fasted n = 6) was 0 n (%) and the Headache ([5]; 5 mg fasted n = 6) was 0 n (%). The Nasopharyngitis ([5]; 5 mg fasted n = 6) was 0 n (%), the Oropharyngeal pain ([5]; 5 mg fasted n = 6) was 1 (16.7) n (%) and the Rash maculopapular ([5]; 5 mg fasted n = 6) was 0 n (%). The Restlessness ([5]; 5 mg fasted n = 6) was 1 (16.7) n (%), the Rhinitis ([5]; 5 mg fasted n = 6) was 0 n (%) and the “Any AE” value ([5]; 15 mg fasted n = 6) was 2 (33.3) n (%). The Epistaxis ([5]; 15 mg fasted n = 6) was 1 (16.7) n (%), the Gastroenteritis ([5]; 15 mg fasted n = 6) was 0 n (%) and the Headache ([5]; 15 mg fasted n = 6) was 1 (16.7) n (%). The Nasopharyngitis ([5]; 15 mg fasted n = 6) was 0 n (%), the Oropharyngeal pain ([5]; 15 mg fasted n = 6) was 0 n (%) and the Rash maculopapular ([5]; 15 mg fasted n = 6) was 0 n (%). For the same compound, the Restlessness ([5]; 15 mg fasted n = 6) was 0 n (%), the Rhinitis ([5]; 15 mg fasted n = 6) was 0 n (%) and the “Any AE” value ([5]; 45 mg fasted n = 6) was 3 (50.0) n (%). For the same compound, the Epistaxis ([5]; 45 mg fasted n = 6) was 0 n (%), the Gastroenteritis ([5]; 45 mg fasted n = 6) was 1 (16.7) n (%) and the Headache ([5]; 45 mg fasted n = 6) was 2 (33.3) n (%). For the same compound, the Nasopharyngitis ([5]; 45 mg fasted n = 6) was 0 n (%), the Oropharyngeal pain ([5]; 45 mg fasted n = 6) was 0 n (%) and the Rash maculopapular ([5]; 45 mg fasted n = 6) was 1 (16.7) n (%). The Restlessness ([5]; 45 mg fasted n = 6) was 0 n (%), the Rhinitis ([5]; 45 mg fasted n = 6) was 0 n (%) and the “Any AE” value ([5]; 45 mg fed n = 4) was 0 n (%). For the same compound, the Epistaxis ([5]; 45 mg fed n = 4) was 0 n (%), the Gastroenteritis ([5]; 45 mg fed n = 4) was 0 n (%) and the Headache ([5]; 45 mg fed n = 4) was 0 n (%). For the same compound, the Nasopharyngitis ([5]; 45 mg fed n = 4) was 0 n (%), the Oropharyngeal pain ([5]; 45 mg fed n = 4) was 0 n (%) and the Rash maculopapular ([5]; 45 mg fed n = 4) was 0 n (%). The Restlessness ([5]; 45 mg fed n = 4) was 0 n (%), the Rhinitis ([5]; 45 mg fed n = 4) was 0 n (%) and the “Any AE” value ([5]; 135 mg fasted n = 6) was 3 (50.0) n (%). For the same compound, the Epistaxis ([5]; 135 mg fasted n = 6) was 0 n (%), the Gastroenteritis ([5]; 135 mg fasted n = 6) was 0 n (%) and the Headache ([5]; 135 mg fasted n = 6) was 1 (16.7) n (%). For the same compound, the Nasopharyngitis ([5]; 135 mg fasted n = 6) was 1 (16.7) n (%), the Oropharyngeal pain ([5]; 135 mg fasted n = 6) was 0 n (%) and the Rash maculopapular ([5]; 135 mg fasted n = 6) was 1 (16.7) n (%). For the same compound, the Restlessness ([5]; 135 mg fasted n = 6) was 0 n (%), the Rhinitis ([5]; 135 mg fasted n = 6) was 0 n (%) and the “Any AE” value ([5]; 405 mg fasted n = 6) was 2 (33.3) n (%). For the same compound, the Epistaxis ([5]; 405 mg fasted n = 6) was 0 n (%), the Gastroenteritis ([5]; 405 mg fasted n = 6) was 0 n (%) and the Headache ([5]; 405 mg fasted n = 6) was 0 n (%). The Nasopharyngitis ([5]; 405 mg fasted n = 6) was 0 n (%), the Oropharyngeal pain ([5]; 405 mg fasted n = 6) was 1 (16.7) n (%) and the Rash maculopapular ([5]; 405 mg fasted n = 6) was 2 (33.3) n (%). For the same compound, the Restlessness ([5]; 405 mg fasted n = 6) was 0 n (%), the Rhinitis ([5]; 405 mg fasted n = 6) was 1 (16.7) n (%) and the “maculopapular rash (moderate intensity), participants” value ([5]; all participants receiving AZD4831) was 4/30. For the same compound, the “maculopapular rash (moderate intensity), participants” value ([5]; all participants receiving AZD4831, n = 30) was 13.3%, the “duration of maculopapular rash” value ([5]; in vivo) was 5 to 9 days and the “time of report of maculopapular rash after dosing” value ([5]; in vivo) was 7 to 9 days. The “Any AE” value ([5]; pooled AZD4831 fasted n = 30) was 12 (40.0) n (%), the Epistaxis ([5]; pooled AZD4831 fasted n = 30) was 1 (3.3) n (%) and the Gastroenteritis ([5]; pooled AZD4831 fasted n = 30) was 1 (3.3) n (%). The Headache ([5]; pooled AZD4831 fasted n = 30) was 4 (13.3) n (%), the Nasopharyngitis ([5]; pooled AZD4831 fasted n = 30) was 1 (3.3) n (%) and the Oropharyngeal pain ([5]; pooled AZD4831 fasted n = 30) was 2 (6.7) n (%). For the same compound, the Rash maculopapular ([5]; pooled AZD4831 fasted n = 30) was 4 (13.3) n (%), the Restlessness ([5]; pooled AZD4831 fasted n = 30) was 1 (3.3) n (%) and the Rhinitis ([5]; pooled AZD4831 fasted n = 30) was 1 (3.3) n (%). The “serious AEs or deaths” value ([5]; whole study) was “no serious AEs or deaths occurred”.
